Data on 58 molecules can be found in patent US9216964B2, “Hedgehog pathway modulators” (Novartis AG, priority 2008, dated 2015).

This assay relates to hedgehog signaling pathway. Kind of assay: Gli-Luc Reporter Assay for Hh Pathway Inhibition (TMHh-12 cells, pTA-8×Gli-Luc reporter). Type of assay: cell-based, Mouse. Here is the method: Compounds of the present invention are assayed to evaluate their capacity to inhibit the hedgehog signaling pathway.
Gli-Luc Reporter Assay for Hh Pathway Inhibition
Mouse TM3 cells (obtained from American Type Culture Collection, ATCC, Manassas, Va.) are cultured in DMEM/F12 medium (Gibco/Invitrogen, Carlsbad, Calif.) supplemented with 5% heat inactivated horse serum and 2.5% FBS (Gibco/Invitrogen, Carlsbad, Calif.), 50 unit/mL penicillin and 50 μg/mL of streptomycin (Gibco/Invitrogen, Carlsbad, Calif.) at […] with 5% CO2 in air atmosphere. TM3 cells were transfected with pTA-8×Gli-Luc reporter plasmid. A stably transfected clone termed TMHh-12 was selected. […] To evaluate the IC50s of the antagonists, 8000 TMHh-12 cells were plated into each wells in 384-well plates with 50% DMEM/F12 medium supplemented with 2% FBS. After 12 hours, Hh pathway is activated by adding recombinant mouse Shh protein (expressed in E. coli, 8 μg/mL) or by adding Smo agonists. The testing compounds are added into plates with different concentrations. After 48 hours, the firefly luciferase luciferase activities are assayed with the Bright-Glo™ Luciferase Assay System (Promega, Madison, Wis.). The IC50 is measured when the effect of the compound reduces the luminescence signal by 50%. Toxicity of these compounds are evaluated in TM3 cells using CellTiter Glo assays or by TM3-Luc cell line (a TM3 cell stably transfected with a constitutive luciferase expression vector).
Background: A reporter such as luciferase makes a cellular process visible.

Where [1] appears, read: Mus musculus, TMHh12, enzymatic and cellular assays for the inhibition of hedgehog signaling pathways, read-out: IC50 Ranges.
Setting [2] is: Mus musculus, TMHh12, Ag1.5 1 nM, read-out: Hedgehog Inhibition IC50 (nM) (Ag1.5 1 nM).

Read-outs that look alike come from different tables or passages of the source.

The IC50 is the concentration at which inhibition is half-maximal. For the molecule `CC(=O)N1CCc2c(cccc2Nc2ccc(Cl)c(-c3ncc(-c4ccccc4)[nH]3)c2)C1` [Compound 56], the IC50 under setting [1] was 0.001 to 1 nM.

For `Clc1ccc(Nc2cccc3c2CCNC3)cc1-c1ncc(-c2ccccc2)[nH]1` [Compound 57], the IC50 reads like this: under setting [2], 22.7 nM; under setting [1], 10 to 100 nM.

With `CC(C(=O)O)N1CCc2c(cccc2Nc2ccc(Cl)c(-c3ncc(-c4ccccc4)[nH]3)c2)C1` (stereo not drawn) [Compound 58], the IC50 under setting [1] lay within 1 to 10 nM.

`Cc1ccc(Nc2cccc3c2CCN(S(C)(=O)=O)C3)cc1-c1ncc(-c2cncnc2)[nH]1` [Compound 59]: the IC50 under setting [1] lay in the range of 1 to 10 nM.

`Cc1ccc(Nc2cccc3c2CCN(S(C)(=O)=O)C3)cc1-c1ncc(-c2cccnc2)[nH]1` [Compound 60]: the IC50 under setting [1] fell in the range of 0.001 to 1 nM.

Consider `Cc1ccc(Nc2cccc3c2CCN(S(C)(=O)=O)C3)cc1-c1nc2cc(F)ccc2[nH]1` [Compound 61], for which the IC50 under setting [1] lay in the range of 0.001 to 1 nM.

As to `FC(F)(F)CN1CCc2c(cccc2Nc2ccc(Cl)c(-c3ncc(-c4ccccc4)[nH]3)c2)C1` [Compound 62], the IC50 under setting [1] fell in the range of 0.001 to 1 nM.

Take `Cc1ccc(Nc2cccc3c2CCN(S(C)(=O)=O)C3)cc1-c1nc2ncncc2[nH]1` [Compound 63]: under setting [1], the IC50 lay within 10 to 100 nM.

Consider `O=C(O)C(F)(F)CN1CCc2c(cccc2Nc2ccc(Cl)c(-c3nc(-c4ccccc4)c[nH]3)c2)C1` [Compound 64], for which the IC50 under setting [1] fell in the range of 1 to 10 nM.

In the case of `CC(C)(C(=O)O)N1CCc2c(cccc2Nc2ccc(Cl)c(-c3nc(-c4ccccc4)c[nH]3)c2)C1` [Compound 65], under setting [1], the IC50 was 1 to 10 nM.

Turning to `CCC(CC)(C(=O)O)C(=O)N1CCc2c(cccc2Nc2ccc(Cl)c(-c3nc(-c4ccccc4)c[nH]3)c2)C1` [Compound 66], the IC50 under setting [2] turned out to be 5.3 nM and the IC50 under setting [1] fell in the range of 1 to 10 nM.

In the case of `CC(C)(C(=O)O)C(=O)N1CCc2c(cccc2Nc2ccc(Cl)c(-c3ncc(-c4ccccc4)[nH]3)c2)C1` [Compound 67], the IC50 under setting [1] was 1 to 10 nM.

As to `O=C(O)C1(C(=O)N2CCc3c(cccc3Nc3ccc(Cl)c(-c4ncc(-c5ccccc5)[nH]4)c3)C2)CC1` [Compound 68], the IC50 under setting [1] fell in the range of 0.001 to 1 nM.

Turning to `O=C(O)C1(C(=O)N2CCc3c(cccc3Nc3ccc(Cl)c(-c4ncc(-c5ccccc5)[nH]4)c3)C2)CCC1` [Compound 69], the IC50 reads like this: under setting [2], 1.4 nM; under setting [1], 1 to 10 nM.

With `Cc1ccc(Nc2cccc3c2CCN(C(=O)C(C)(CO)CO)C3)cc1-c1nc2ccccc2[nH]1` [Compound 70], under setting [1], the IC50 fell in the range of 0.001 to 1 nM.

On to `OCC(F)(F)CN1CCc2c(cccc2Nc2ccc(Cl)c(-c3nc(-c4ccccc4)c[nH]3)c2)C1` [Compound 71], for which the IC50 under setting [1] lay within 0.001 to 1 nM.

With `O=C(CO)N1CCc2c(cccc2Nc2ccc(Cl)c(-c3ncc(-c4ccccc4)[nH]3)c2)C1` [Compound 72], under setting [1], the IC50 is 0.001 to 1 nM.

On to `CC1(C(=O)N2CCc3c(cccc3Nc3ccc(Cl)c(-c4ncc(-c5ccccc5)[nH]4)c3)C2)CC1` [Compound 73], for which the IC50 is 0.5 nM under setting [2] and 0.001 to 1 nM under setting [1].

`O=C(N1CCc2c(cccc2Nc2ccc(Cl)c(-c3ncc(-c4ccccc4)[nH]3)c2)C1)C1(O)CC1` [Compound 74]: the IC50 under setting [1] lay within 0.001 to 1 nM.

Turning to `Cc1ccc(Nc2cccc3c2CCN(C2CCS(=O)(=O)CC2)C3)cc1-c1ncc(-c2cccnc2)[nH]1` [Compound 75], the IC50 (enzymatic and cellular assays for the inhibition of hedgehog signaling pathways, read-out: IC50 Ranges) lay within 1 to 10 nM.

As to `Cc1ccc(Nc2cccc3c2CCN(C(=O)C(C)(CO)CO)C3)cc1-c1ncc(-c2cccnc2)[nH]1` [Compound 76], under setting [1], the half-inhibitory concentration (IC50) lay within 1 to 10 nM.

On to `CC(C(=O)O)N1CCc2c(Nc3ccc(Cl)c(-c4nc(-c5ccccc5)c[nH]4)c3)cccc2C1=O` (stereo not drawn) [Compound 77], for which the half-maximal inhibitory concentration (IC50) under setting [1] lay in the range of 100 to 1000 nM.

Turning to `C[C@H](C(=O)O)N1CCc2c(cccc2Nc2ccc(Cl)c(-c3nc(-c4ccccc4)c[nH]3)c2)C1` [Compound 78], the IC50 under setting [1] was 1 to 10 nM.

For `C[C@@H](C(=O)O)N1CCc2c(cccc2Nc2ccc(Cl)c(-c3nc(-c4ccccc4)c[nH]3)c2)C1` [Compound 79], the IC50 under setting [1] was in the range of 1 to 10 nM.

`CC1(N2CCc3c(cccc3Nc3ccc(Cl)c(-c4ncc(-c5ccccc5)[nH]4)c3)C2)CC1` [Compound 80]: the IC50 under setting [1] was in the range of 1 to 10 nM.

With `Cc1ccc(Nc2cccc3c2CCN(C[C@H](O)CO)C3=O)cc1-c1nc2ccccc2[nH]1` [Compound 81], the 50% inhibitory concentration (IC50) under setting [1] is 10 to 100 nM.

On to `Clc1ccc(Nc2cccc3c2CCN(C2CC2)C3)cc1-c1ncc(-c2ccccc2)[nH]1` [Compound 82], for which the IC50 under setting [1] fell in the range of 0.001 to 1 nM.

For the molecule `O=C(O)C(=O)N1CCc2c(cccc2Nc2ccc(Cl)c(-c3ncc(-c4ccccc4)[nH]3)c2)C1` [Compound 83], under setting [1], the IC50 lay within 10 to 100 nM.

Consider `OCC1(N2CCc3c(cccc3Nc3ccc(Cl)c(-c4ncc(-c5ccccc5)[nH]4)c3)C2)CC1` [Compound 84], for which the IC50 under setting [1] was in the range of 0.001 to 1 nM.

For the molecule `Cc1ccc(Nc2cccc3c2CCN(CC(F)(F)CO)C3)cc1-c1nc2ccccc2[nH]1` [Compound 85], the IC50 under setting [1] is 0.001 to 1 nM.

Turning to `Clc1ccc(Nc2cccc3c2CCN(Cc2nn[nH]n2)C3)cc1-c1ncc(-c2ccccc2)[nH]1` [Compound 86], under setting [1], the IC50 was in the range of 1 to 10 nM.

As for `Clc1ccc(Nc2cccc3c2CCN(c2nn[nH]n2)C3)cc1-c1ncc(-c2ccccc2)[nH]1` [Compound 87], the IC50 under setting [1] was in the range of 1 to 10 nM.

In the case of `O=C1c2cccc(Nc3ccc(Cl)c(-c4ncc(-c5ccccc5)[nH]4)c3)c2CCN1C1(CO)CC1` [Compound 88], the IC50 under setting [1] fell in the range of 0.001 to 1 nM.

In the case of `Cc1ccc(Nc2cccc3c2CCN(C2(CO)CC2)C3)cc1-c1nc2ccccc2[nH]1` [Compound 89], under setting [1], the IC50 lay within 1 to 10 nM.

Take `Cc1c(Nc2cccc3c2CCN(S(C)(=O)=O)C3)cccc1-c1ccc(C#N)cc1` [Compound 90]: the IC50 was 490 nM under setting [2] and 100 to 1000 nM under setting [1].

For `Cc1ccc(-c2cnc(-c3cc(Nc4cccc5c4CCN(S(C)(=O)=O)C5)ccc3C)[nH]2)cn1` [Compound 91], under setting [1], the IC50 is 1 to 10 nM.

Consider `OC[C@@H](O)CN1CCc2c(cccc2Nc2ccc(Cl)c(-c3ncc(-c4ccccc4)[nH]3)c2)C1` [Compound 93], for which the IC50 under setting [1] was in the range of 1 to 10 nM.

Take `CNc1ncc2nc(-c3cc(Nc4cccc5c4CCN(S(C)(=O)=O)C5)ccc3C)sc2n1` [Compound 94]: the IC50 under setting [1] was in the range of 10 to 100 nM.

On to `CC1(CN2CCc3c(cccc3Nc3ccc(Cl)c(-c4ncc(-c5ccccc5)[nH]4)c3)C2)CC1` [Compound 95], for which the IC50 under setting [1] was in the range of 0.001 to 1 nM.

Turning to `CS(=O)(=O)N1CCc2c(cccc2Nc2ccc(Cl)c(-c3nc(-c4ccccc4)co3)c2)C1` [Compound 96], the IC50 was 263 nM under setting [2] and 100 to 1000 nM under setting [1].

In the case of `Cc1ccc(Nc2cccc3c2CCN(CC2(C)CC2)C3)cc1-c1nc2ccccc2[nH]1` [Compound 97], the IC50 under setting [1] was 1 to 10 nM.

For the molecule `COc1ccc(-c2cc(Nc3cccc4c3CCN(S(C)(=O)=O)C4)ccc2C)cn1` [Compound 98], the concentration for half-maximal inhibition (IC50) under setting [1] lay in the range of 10 to 100 nM.

With `COc1ccc(-c2cc(Nc3cccc4c3CCN(S(C)(=O)=O)C4)ccc2C)cc1` [Compound 99], the concentration for half-maximal inhibition (IC50) under setting [1] was 10 to 100 nM.

For the molecule `COc1ccc(-c2cnc(-c3cc(Nc4cccc5c4CCN(S(C)(=O)=O)C5)ccc3C)[nH]2)cn1` [Compound 100], the IC50 under setting [1] lay in the range of 0.001 to 1 nM.

As for `Cc1ccc(Nc2cccc3c2CCN(S(C)(=O)=O)C3)cc1-c1ncc(-c2ccc(C#N)cc2)[nH]1` [Compound 101], the IC50 under setting [1] is 0.001 to 1 nM.

For `Cc1ccc(Nc2cccc3c2CCN(S(C)(=O)=O)C3)cc1-c1ccc(C#N)cc1` [Compound 102], the IC50 under setting [1] fell in the range of 1 to 10 nM.

In the case of `Cc1ccc(Nc2cccc3c2CCN(S(C)(=O)=O)C3)cc1-c1nc2cnc(N(C)C)cc2[nH]1` [Compound 103], the IC50 reads like this: under setting [2], 59 nM; under setting [1], 10 to 100 nM.

Take `COc1cccc(-c2cnc(-c3cc(Nc4cccc5c4CCN(S(C)(=O)=O)C5)ccc3C)[nH]2)n1` [Compound 104]: the IC50 under setting [1] lay within 0.001 to 1 nM.

Turning to `Cc1ccc(Nc2cccc3c2CCN(S(C)(=O)=O)C3)cc1-c1nc2ccccc2o1` [Compound 105], under setting [1], the IC50 fell in the range of 1 to 10 nM.

With `Cc1ccc(Nc2cccc3c2CCN(S(C)(=O)=O)C3)cc1-c1ncc(-c2ccc(CN(C)C)cc2)[nH]1` [Compound 106], the IC50 under setting [1] lay in the range of 1 to 10 nM.

With `Cc1ccc(Nc2cccc3c2CCN(S(C)(=O)=O)C3)cc1-c1ncc(-c2cnc(N(C)C)nc2)[nH]1` [Compound 107], the IC50 under setting [1] was 1 to 10 nM.

`Cc1ccc(Nc2cccc3c2CCN(S(C)(=O)=O)C3)cc1-c1ccc(CN(C)C)cc1` [Compound 108]: under setting [1], the IC50 is 100 to 1000 nM.

For the molecule `Cc1ccc(Nc2cccc3c2CCN(S(C)(=O)=O)C3)cc1-c1ccc(-c2ccccc2)cc1` [Compound 109], under setting [1], the IC50 lay in the range of 100 to 1000 nM.

With `COc1cc2[nH]c(-c3cc(Nc4cccc5c4CCN(S(C)(=O)=O)C5)ccc3C)nc2cn1` [Compound 110], the IC50 under setting [1] was 10 to 100 nM.

`Cc1ncc(Nc2cccc3c2CCN(S(C)(=O)=O)C3)cc1-c1nc2ccccc2[nH]1` [Compound 111]: under setting [1], the IC50 lay in the range of 1 to 10 nM.

Take `Cc1ccc(Nc2cccc3c2CCN(CC(F)(F)CO)C3)cc1-c1ccc(C#N)cc1` [Compound 112]: under setting [1], the 50% inhibitory concentration (IC50) fell in the range of 10 to 100 nM.

On to `Cc1ccc(Nc2cccc3c2CCN(S(C)(=O)=O)C3)cc1-c1ccc(C(C)(C)C)cc1` [Compound 113], for which the IC50 reads like this: under setting [2], 1030 nM; under setting [1], 1000 to 10000 nM.

As to `CC(=O)c1ccc(-c2cc(Nc3cccc4c3CCN(S(C)(=O)=O)C4)ccc2C)cc1` [Compound 114], the IC50 under setting [1] was 100 to 1000 nM.
